Reference: patent US11306063B2, “Heterocyclic naphthoquinones derivatives for use in the treatment of cancers including Cushing disease” (Commissariat a l'Energie Atomique et aux Energies …, priority 2016, dated 2022)
Like-named read-outs stand apart in the source and are kept apart here.

Legend:
[1] = biological target: T1, USP8^CD (purified catalytic domain of USP8) (Homo sapiens, UniProt P40818); assay: Inhibition of purified USP8^CD enzymatic activity (Ub-AMC or Ub-Rho substrate); assay type: biochemical; conditions: for inhibition at 0.01 µM: 0.01 μM compound; for inhibition at 0.05 µM: 0.05 μM compound; for inhibition at 0.1 µM: 0.1 μM compound; for inhibition at 0.5 µM: 0.5 μM compound; for inhibition at 1 µM: 1 μM compound; for inhibition at 5 µM: 5 μM compound; for inhibition at 10 µM: 10 μM compound; for inhibition at 25 µM: 25 μM compound; for inhibition at 50 µM: 50 μM compound; for inhibition of USP8^CD catalytic activity (IC50 range, FIG. 1): Ub-Rho substrate (0.1 μM)
T1 construct: the purified catalytic domain of USP8 (USP8^CD, in-house purified); made in house; host or cells: E. coli BL21 Gold
T1 sequence (P40818 777-1109 limits assumed): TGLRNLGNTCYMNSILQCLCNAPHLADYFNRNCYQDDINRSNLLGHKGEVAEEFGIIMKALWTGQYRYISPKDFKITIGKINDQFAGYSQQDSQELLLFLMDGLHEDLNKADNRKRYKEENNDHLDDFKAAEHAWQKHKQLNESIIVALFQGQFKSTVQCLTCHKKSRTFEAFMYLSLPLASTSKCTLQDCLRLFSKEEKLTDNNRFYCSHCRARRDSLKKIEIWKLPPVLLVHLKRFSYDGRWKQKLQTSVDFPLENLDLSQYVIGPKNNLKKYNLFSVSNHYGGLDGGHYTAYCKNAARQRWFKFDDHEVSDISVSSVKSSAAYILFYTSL
Procedure, shortened: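 His-tagged catalytic domain expressed in E. coli and purified by Ni affinity and gel filtration. Assayed in 50 mM HEPES pH 7.6 or 40 mM Tris pH 7.4 buffer with 1 mM DTT; compound added just before Ub-AMC or Ub-Rho substrate, fluorescence kinetics followed 20 or 30 min. Median of duplicates.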

LNCaP cells spheroids = assay: Cell death in 3D spheroids (PI/Hoechst, high content analysis); assay type: cell-based, human; conditions: 1 to 3 days, increasing concentration, FIG. 2C
Protocol: Spheroids were then stained with Hoechst and Propidium Iodure (PI). The area of each staining was calculated via automated imaging. Histograms represent the medium value of the PI/Hoechst areas ratio calculated on 3 to 6 independent spheroids. Error bars indicate the standard deviation between technical replicates. One out of three experiments is presented.
For 3D cell culture (spheroids), the LNCaP-FGC (fast growing colony) cell line (ATCC #CRL1740) was used. This cell line derives from the LNCaP cell line (Human Prostatic Carcinoma) which shares all the main characteristics, including its androgen sensitivity, described for the parental line and HCT116 (ATCC #CCL 247) (Human Colorectal Carcinoma) cell lines. […]
An automated imaging protocol was designed to monitor the induction of cell death in the spheroids by high content analysis methods (HCA). 3 hours before reading, cells were labeled with vital Hoechst (400 ng/ml) (Thermo Fischer Scientific #33342) and Propidium Iodide (PI) at 1 μg/ml (Sigma Aldrich #P4864) as markers of cell nuclei and cell death respectively. Images of PI and Hoechst fluorescence were acquired using the automated microscope ArrayScan^VTI (ThermoScientific) and 5 times magnification. […]

[2] = test system: Gefitinib-resistant clone H1975; assay: Cell growth inhibition and cell death induction (Incucyte), H1975; assay type: cell-based, human; conditions: 72 hours, FIG. 12A,B
Source text: FIG. 12: The cell growth inhibition and cell death induction of non-small cell lung cancers (NSCLC), HCC827 cells and derivative Gefitinib-resistant clone H1975 (FIG. 12 A,B) and of PC-3 (FIG. 12 C,D) and LnCAP (FIG. 12 E,F) were monitored using Incucyte microscope. Histogram represent in A,C,E: the final cell area relative to the total well area in (%) and in B,D,F: the fluorescent area in μm2. Error bars indicate standard deviation between 6 technical replicates.
The cell growth inhibition and cell death induction of non-small cell lung cancers (NSCLC), HCC827 cells and derivative Gefitinib-resistant clone H1975 were monitored during a period of 72 hours using Incucyte microscope and dedicated programs allowing to monitor cell confluency (i.e.: cell surface area relative to total well surface) and cell death induction by adding Propidium Iodide (PI) at 1 μg/ml (Sigma Aldrich #P4864) in the culture medium.

[3] = Metabolic stability on human liver microsomes; assay type: in vitro ADME; conditions: 0.5 μM, up to 30 min; for cofactors (CYP)-mediated metabolism, human: with cofactors; for metabolism in the absence of cofactors, human: without cofactors
Protocol: Each compound was incubated either with cofactors (n=2) or without cofactors (n=1). Positive controls were: Diclofenac, Midazolam and Amitriptyline.

[4] = Ub-AMC substrate at 1 μM, Table 2b, read-out: IC50 USP8 CD
[5] = Ub-Rhodamine substrate at 0.1 μM, Table 2c, read-out: IC50 USP8 CD

inhibition at 0.01 µM ([1]; Table 1d) [%] | inhibition at 0.05 µM ([1]; Table 1d) [%] | inhibition at 0.1 µM ([1]; Table 1d) [%] | inhibition at 0.5 µM ([1]; Table 1d) [%] | inhibition at 1 µM ([1]; Table 1b) [%] | inhibition at 1 µM ([1]; Table 1d) [%] | inhibition at 5 µM ([1]; Table 1b) [%] | inhibition at 5 µM ([1]; Table 1d) [%] | inhibition at 10 µM ([1]; Table 1d) [%] | inhibition at 25 µM ([1]; Table 1b) [%] | inhibition at 50 µM ([1]; Table 1b) [%] | IC50 [1, 4] [nM] | IC50 [1, 5] [nM] | SMILES | cell death in spheroids (PI area over Hoechst area) (LNCaP cells spheroids) | inhibition of USP8^CD catalytic activity (IC50 range, FIG. 1) [1] | cell growth inhibition and cell death induction, H1975 [2] | cofactors (CYP)-mediated metabolism, human [3] | metabolism in the absence of cofactors, human [3] | also measured
-25 | 3 | 7 | 65 | 64 | 74 | 103 | 78 | 97 | 115 | 103 | 400 | 2300 | O=C1c2ccccc2C(=O)c2nc(CS(=O)(=O)c3ccccc3F)c(CS(=O)(=O)c3ccccc3F)nc21 [OVM24] |  |  |  |  |  | 
 |  |  |  |  |  |  |  |  |  |  |  |  | CCCCS(=O)(=O)Cc1nc2c(nc1CS(=O)(=O)CCCC)C(=O)c1ccccc1C2=O [PCR6236] | significant induction of a tumorous cells death | in the nanomolar range | inhibit cell growth and induce cell death in a dose dependent manner | low | No metabolism was observed | IC50 [1]: 60 nM
-17 | 16 | 0 | 67 | 93 | 93 | 98 | 103 | 99 | 100 | 107 | 300 | 40 | CCCS(=O)(=O)Cc1nc2c(nc1CS(=O)(=O)CCC)C(=O)c1ccccc1C2=O [VIN6074] |  |  |  |  |  | 
 |  |  |  |  |  |  |  |  |  |  |  |  | CCCCS(=O)(=O)Cc1nc2c(o1)C(=O)c1ccccc1C2=O [PCR9301] | to an ever higher extend | in the nanomolar range | inhibit cell growth and induce cell death in a dose dependent manner | not or poorly metabolized | No metabolism was observed | inhibition at 0.1 µM ([1]; Table 3a): 53%; inhibition at 0.5 µM ([1]; Table 3a): 81%; inhibition at 1 µM ([1]; Table 3a): 107%; IC50 ([1]; Ub-Rho substrate, Table 3b, read-out: IC50 against purified USP8^CD): 80 nM
